Assay results taken from PMC10868801, “Characterization of covalent inhibitors that disrupt the interaction between the tandem SH2 domains of SYK and FCER1G phospho-ITAM” (PLOS ONE, 2024).
Converted amounts (≈) assume the structure as drawn. “Also recorded” adds a separate entry of the source.

Assays:
SYK-tSH2 [1] = target: T1, SYK-tSH2 (Homo sapiens, UniProt P43405); test: Covalent labelling and intact mass spectrometry; assay type: binding; set-up: tandem SH2 domains of human SYK (residues M6-N269); 6xHis (N, cleaved yes); made in house; host or cells: E. coli BL21(DE3)-R3-pRARE; details: for Number of mass adducts on SYK-tSH2 / Covalent modification of SYK-tSH2: 100 μM
Text: The HTS hits 13 and 37 contain a kojic acid moiety, which is proposed to react covalently with proteins in the literature. As a result, we thought that it was likely these compounds are also reacting covalently with SYK-tSH2. […] When bound to the protein, these kojic acid-derived compounds have a 94 Da decrease in mass due to the loss of the pyridin-2-amine leaving group to reveal a Michael acceptor that can react covalently with cysteine residues (Fig 5B).
To expand on the initial 40 putative hits that were identified via uHTS (Fig 3D), additional commercially available structural analogues were ordered and screened via TR-FRET and differential scanning fluorimetry (DSF) (S1 Table). […] The observation of a substantial reduction in protein melting temperature motivated us to determine if the compounds interacted covalently with the SYK-tSH2 domains. Additionally, since the thiourea in these small molecules is reported to react via oxidation, the compounds could be capable of forming a covalent disulfide bond with cysteine residues on SYK [39]. We used compound 1, which is a known covalent modifier of SYK-tSH2, as a positive control in the mass spectrometry analysis. […] Literature reports support that this type of chemical reaction can occur in DMSO, forming a disulfide bond. […] Like we had originally observed for the older DMSO stock solution of 42 (Fig 6C), 44 forms two to four mass adducts (422 Da and 844 Da) more than the protein mass when incubated SYK-tSH2 for 1 h (Fig 6D). […] Due to the mass adducts of two to four (422 Da and 844 Da), we propose that 44 is forming a disulfide bond with between two or four cysteines on SYK-tSH2 (Fig 6G).

MSN = MSN (Homo sapiens, UniProt P26038); test: Covalent labelling and intact mass spectrometry (selectivity); details: 1 h, room temperature
[2] = Kinetic solubility (Analiza, Inc., CLND); assay type: physicochemical; details: phosphate buffered saline, aqueous buffer, kinetic from dmso stock, PBS pH 7.4, 24 h incubation, by Analiza
Experimental: Following 24 h incubation in a Millipore solubility filter plate, samples were vacuum filtered, and the filtrates collected for analysis. Filtrates were injected into the nitrogen detector for quantification via total chemiluminescent nitrogen determination (CLND). Filtrates were quantified with respect to a calibration curve generated using standards that span the dynamic range of the instrument. The reported solubility value has been corrected for background nitrogen present in the media and DMSO.

[3] = target: T2, full length SYK and FCER1G (Homo sapiens, UniProt P43405); test: GST pull-down (GST-PD) of GST-SYK and FCER1G-Flag from HEK293T cell lysates; assay type: biochemical; details: dose-response format
T2 construct: full length GST-SYK and FCER1G-Flag were co-expressed in HEK293 cells prior to lysis; expressed in transfected cells; host or cells: HEK293T (CRL-3216, ATCC)
Experimental: Pull-down assays were used as an orthogonal assay to determine if the compounds could disrupt the PPI between full length SYK and FCER1G proteins from cell lysates. To optimize GST pulldown assays, full length GST-SYK and FCER1G-Flag were co-expressed in HEK293 cells prior to lysis and the protein expression and cell lysate concentrations tested (Fig 4A). All 40 compounds that progressed from uHTS were tested via GST-PD at a single concentration (100 μM) to determine if they could inhibit the PPI between the full-length proteins, with the p-ITAM FCER1G peptide used as a positive control (Fig 4B). […] Compound 24 contains a promiscuous maleimide, which is well known to react indiscriminately with proteins.
GST-, VF-tagged human SYK and FCER1G plasmids for mammalian expression were generated using Gateway cloning technology (Invitrogen) as described previously. The DNA was purified using ZymoPURE Plasmid Maxiprep Kit (D4203, Zymo Research).
WB secondary antibodies: peroxidase-conjugated AffiniPure Goat Anti-Mouse IgG (H+L) (115-035-003, Jackson Immuno Research) 1:5000 dilution in TBST. GST pulldown was performed as described with minor changes. HEK293T (CRL-3216, ATCC) were cultured in Dulbecco’s modified Eagle’s medium with 4.5 g/L glucose, L-glutamine, and sodium pyruvate (10–013-CV, Corning) supplemented with 10% fetal bovine serum and 1% penicillin/streptomycin solution (30–002-CI, CellGro). Cells were incubated at 37°C in humidified conditions with 5% CO2. The HEK293T cells were transfected using 1 mg/mL Polyethylenimine (PEI; 23966, Polysciences) in a ratio of 3 μL to 1 μg DNA. The proteins were expressed for 48 h at 37°C. Cell pellets were re-suspended in the SYK lysis buffer (25 mM HEPES, pH 7.5, 200 mM NaCl, 0.5% Triton X100 (T9284-1L, Sigma-Aldrich), followed by sonication for 10 s (5 s on, 5 s off) at 4°C. Cells were pelleted by 10 min centrifugation at 13,000 rpm at 4°C. The cleared lysates were first pre-incubated with compounds for 30 min and then incubated with glutathione sepharose 4B beads (17075605, Cytiva Sweden AB) at 4°C for 2 h with rotation. After the incubation, beads were washed three times with the SYK lysis buffer, eluted by boiling in sodium dodecyl sulfate-polyacrylamide gel electrophoresis (SDS–PAGE) loading buffer (1610737, Bio-Rad), and analyzed by western blotting.

SYK-tSH2 [4] = tested on: SYK-tSH2; set-up: method as in PMID 25287889; details: mass spectrometry; cited from earlier work
[5] = target: T3, SYK-tSH2 / FCER1G p-ITAM interaction (Homo sapiens, UniProt P43405); test: TR-FRET assay of 6xHis-SYK-tSH2 with FITC-labeled FCER1G p-ITAM peptide; assay type: biochemical
T3 construct: the tSH2 domain of SYK (residues M6-N269) fused to an N-terminal 6×His tag; made in house; host or cells: E. coli BL21(DE3)-R3-pRARE
Text: To facilitate identification of inhibitors of the SYK-FCER1G interaction, we developed a TR-FRET assay using recombinant protein comprising the tSH2 domain of SYK (residues M6-N269) fused to an N-terminal 6×His tag (S1A Fig). The TR-FRET assay is based on the interaction of a FITC-labeled FCER1G p-ITAM peptide to the 6×His-SYK-tSH2 protein in complex with a terbium-conjugated anti-His antibody (Tb-Ab) (Fig 3B). Once excited, a TR-FRET signal is generated from the Tb donor to the FITC acceptor fluorophore. […] To enable uHTS for large scale screening of small molecule libraries, we miniaturized the TR-FRET assay from 96-well plate format to a 1536-well.
TR-FRET experiments were performed in 20 μL reactions, using 384-well shallow-well microplates (PerkinElmer). Final reaction components contained 6xHis-SYK-tSH2 (SYKA-c020 tagged) (4 nM), FITC-conjugated FCER1G peptide (8 nM), Tb-conjugated anti-6xHis antibody (53 ng/ml; Cisbio) in assay buffer containing 25 mM HEPES (pH 7.5), 200 mM NaCl, 0.1% BSA and 0.05% Tween-20. After a 2h incubation (at room temperature), TR-FRET signals were measured on a BMG Labtech PHERAstar FSX reader using a Lanthascreen Optics Module. A 200 μs delay was used after excitation with a flash lamp before measurement of fluorescence emission at […]. TR-FRET ratios of fluorescent intensity at 520 nm to 490 nm were calculated. The half maximal inhibitory concentration (IC50) was determined by fitting a four parametric logistic curve to the data.

[6] = tested on: SYK-tSH2 domains with a doubly phosphorylated ITAM from a T-cell antigen receptor ζ-chain; set-up: method as in PMID 25287889; details: cited from earlier work
[7] = LCMS characterization of fresh versus older DMSO stocks; assay type: physicochemical; details: older DMSO stocks versus freshly prepared solutions
Text: To expand on the initial 40 putative hits that were identified via uHTS (Fig 3D), additional commercially available structural analogues were ordered and screened via TR-FRET and differential scanning fluorimetry (DSF) (S1 Table). […] The observation of a substantial reduction in protein melting temperature motivated us to determine if the compounds interacted covalently with the SYK-tSH2 domains. Additionally, since the thiourea in these small molecules is reported to react via oxidation, the compounds could be capable of forming a covalent disulfide bond with cysteine residues on SYK [39]. We used compound 1, which is a known covalent modifier of SYK-tSH2, as a positive control in the mass spectrometry analysis. […] Literature reports support that this type of chemical reaction can occur in DMSO, forming a disulfide bond. […]
Supplementary file pone.0293548.s005.tiff: S4 Fig Identification of active disulfide compounds which form in DMSO solutions of compounds 42 and 43. […] LCMS Calculated for [M+H]^+ C7H9N4O2S: 213.04; observed: 213.1 [M+H]^+. […] LCMS Calculated for [M+H]^+ C14H15N8O4S2: 423.06; observed: 423.0 [M+H]^+. […] LCMS Calculated for [M+H]^+ C10H15N4O2S: 255.08; observed: 255.1 [M+H]^+. […] LCMS Calculated for [M+H]^+ C20H27N8O4S2: 507.15; observed: 507.1 [M+H]^+. […]

SYK-tSH2 [8] = target: T1, SYK-tSH2; test: Bio-layer interferometry (BLI) direct binding; details: BLI KD, biotinylated SYK-tSH2

MSN, sequence (P26038 whole entry, species assumed): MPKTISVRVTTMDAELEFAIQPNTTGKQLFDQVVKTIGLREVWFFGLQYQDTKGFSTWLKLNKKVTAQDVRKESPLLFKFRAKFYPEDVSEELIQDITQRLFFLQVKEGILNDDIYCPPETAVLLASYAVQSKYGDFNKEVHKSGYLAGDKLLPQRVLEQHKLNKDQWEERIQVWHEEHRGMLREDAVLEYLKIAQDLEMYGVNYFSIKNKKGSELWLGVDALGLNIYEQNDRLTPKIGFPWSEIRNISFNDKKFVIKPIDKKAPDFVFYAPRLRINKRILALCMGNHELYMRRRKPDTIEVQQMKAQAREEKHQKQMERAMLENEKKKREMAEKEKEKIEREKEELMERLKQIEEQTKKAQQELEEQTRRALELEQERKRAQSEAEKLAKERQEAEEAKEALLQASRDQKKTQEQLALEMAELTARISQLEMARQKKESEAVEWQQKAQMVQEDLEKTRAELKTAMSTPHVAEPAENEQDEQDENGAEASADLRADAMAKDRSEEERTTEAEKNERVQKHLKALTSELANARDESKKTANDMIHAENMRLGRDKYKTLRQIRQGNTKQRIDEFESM

Cn1c(=O)c2[nH]c(SSc3nc4c([nH]3)c(=O)n(C)c(=O)n4C)nc2n(C)c1=O [compound 44, 8,8’-disulfanediylbis(1,3-dimethyl-3,7-dihydro-1H-purine-2,6-dione)]
Compound concentration giving 50% labeling of SYK-tSH2 (SYK-tSH2 [1]; 10 μM SYK-tSH2, dose-response by mass spectrometry): 30 µM | Mass adducts on SYK (SYK-tSH2 [1]; 30 μM, 1 h, room temperature): same formation of mass adducts as 100 μM incubation | Number of mass adducts on SYK-tSH2 (SYK-tSH2 [1]; 1 h, room temperature): two to four | melting point: > 300 °C | Mass adducts on MSN (MSN; 30 μM): same formation of mass adducts as 100 μM incubation | Number of mass adducts on MSN (MSN; 100 μM, four available cysteines): two mass adducts | solubility kinetic at 24 h [2]: 70.9 µM (≈ 30 µg/mL) | PPI disruption in GST-PD [3]: disrupted the PPI; also recorded: able to disrupt the full-length interaction

O=[N+]([O-])c1c(NCCO)cc(Cl)c2nonc12 [compound 1]
Number of mass adducts on SYK-tSH2 (SYK-tSH2 [1]; 1 h, room temperature): one or two | Number of cysteines on SYK-tSH2 bound (SYK-tSH2 [4]): 4 | Interference with the TR-FRET assay [5]: quenching the TR-FRET donor signal | Inhibition of p-ITAM binding with mutated SYK-tSH2 ([6]; Cys206 mutated to serine or alanine): complete loss of inhibition | Disruption of SYK-tSH2 binding to doubly phosphorylated ITAM ([6]; fluorescence polarization inhibition assay): disrupt the binding

Cn1c(=O)c2[nH]c(=S)[nH]c2n(C)c1=O [compound 42, 1,3-dimethyl-8-thioxo-3,7,8,9-tetrahydro-1H-purine-2,6-dione]
Covalent modification of SYK-tSH2 (SYK-tSH2 [1]; 1 h, freshly prepared DMSO stock): did not form a covalent adduct | Number of mass adducts on SYK-tSH2 (SYK-tSH2 [1]; 1 h, older DMSO stock solution): two | Covalent modification of SYK-tSH2 (SYK-tSH2 [1]; 1 h, older DMSO stock solutions): covalently modifies SYK-tSH2 | Stability in DMSO stock solution [7]: had formed corresponding disulfide dimers in DMSO over time | IC50 [5]: 1.9 ± 0.2 µM | solubility kinetic at 24 h [2]: 208 µM (≈ 44.1 µg/mL) | Kd (SYK-tSH2 [8]): 99 ± 0.8 µM
